Measured values as given in PMC9098913, “In vitro reconstitution of Escherichia coli divisome activation” (Nature Communications, 2022).
Read-outs that look alike come from different tables or passages of the source.

Columns and labels:
[1] = target: T1, FtsZ-FtsA WT filaments (Escherichia coli, UniProt P0A9A6+P0ABH0); type: binding, E. coli; details: 0.2 µM FtsA WT, 1.25 µM FtsZ, […] Tris-NTA; p-value 0.03
T1 construct: TwinStrep-SUMO (N, cleaved yes); made in house; host or cells: E. coli BL21
From the text: Single molecule time lapses were acquired every 32 or 51 ms, with exposure times of 30 and 50 ms, respectively.
Single-molecule experiments with FtsNcytowere tracked using the TrackMate plugin from ImageJ[43]. Non-moving particles and short tracks (below 1 s) were filtered out and the data exported as.xml files. […] The packing coefficient is defined as the length of the trajectory in a short time window and the surface area that it occupies. […] This approach is adapted from Renner et al. and implemented here as an easy-to-use Python script. The packing coefficient is computed for each time point as:1 p=∑ii+n−1xi+1−xi^2−yi+1−yi^2/Si^2 Where xi,yi are the coordinates at time i, xi+1, yi+1 are the coordinates at time i+1, n is the length of the time window, and Si is the surface area of the convex hull of the trajectory segment between time points i and i+n. Periods of confinement are identified by setting a threshold corresponding to a certain confinement area size, since p scales with the size of the confinement area. Then it is possible to calculate the frequency and duration of confinement periods and to localize them in space. Each position will have a characteristic p, considering the behaviour of the following n positions. This approach overcomes the limitations of using MSD calculation, which overlooks transient confinement periods. […]

[2] = target: T2, FtsA/Z co-filaments (Escherichia coli, UniProt P0A9A6+P0ABH0, R286W); type: biochemical, E. coli; details: all concentrations of FtsA R286W
T2 construct: TwinStrep-SUMO (N, cleaved yes); made in house; host or cells: E. coli BL21
Procedure: By fitting an exponential function to the increase of the PCC with time, we were able to extract the corresponding recruitment rate (Fig. 2f, g).
(§1) Subsequently, the chamber was washed 6x with reaction buffer, to remove bulk peptide. To visualize colocalization with either FtsZ or FtsA, either a mix of FtsA and Alexa488-FtsZ or Cy3-FtsA and FtsZ was added. […] The time-lapse videos were recorded for 10 min after the addition, with one frame per 2 s.

[3] = test system: FtsZ;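 for effect on FtsZ pattern reorganization dynamics: FtsZ filament patterns imaged by time-lapse TIRF microscopy, one frame per 2 s, with ATP and GTP, Pearson correlation of first frame versus later frames, monoexponential fit, slower decay means persistent structures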
Procedure: as §1
Treadmilling dynamics, were quantified using an automated image analysis protocol previously developed by our group. To visualize colocalization of the co-treadmilling FtsZ & FtsA filaments, we used dual-colour videos obtained at an acquisition rate of one frame per 2 s. The two channels were aligned using FIJI’s 3TP align plugin. Both channels were then subjected to the image subtraction protocol and colocalization was measured as described above.

[4] = test system: FtsZ; details: either version of FtsA;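 for effect on FtsZ pattern reorganization dynamics: FtsZ filament patterns imaged by time-lapse TIRF microscopy, one frame per 2 s, with ATP and GTP, Pearson correlation of first frame versus later frames, monoexponential fit, slower decay means persistent structures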
Procedure: Additionally, the reaction chamber contained 4 mM ATP and 4 mM GTP, as well as a scavenging system to minimize photobleaching effects: 30 mM d-glucose, 0.050 mg ml^−1 Glucose Oxidase, 0.016 mg ml^−1 Catalase, 1 mM DTT and 1 mM Trolox. Prior addition of all components a corresponding buffer volume was removed from the chamber to obtain a total reaction volume of 100 µl. The dynamic protein pattern was monitored by time-lapse TIRF microscopy at one frame per 2 s and 50 ms exposure time.
To measure reorganization dynamics of FtsZ filaments, we used a temporal correlation analysis based on the Image CorrelationJ 1o plugin. We quantified the PCC between the first frame to subsequent frames with increasing time lag (∆t). The decrease in the PCC was plotted against ∆t to obtain autocorrelation curves. Slower decay indicates more persistent structures. The rates of decay were extracted by fitting monoexponential decay to the autocorrelation curves y=a⋅e^−b⋅t+k , where a is the starting point, b is the decay rate and k is the final offset. The half time of the monoexponential decay was calculated via the decay rate.

[5] = test system: FtsZ; remark: listed apart in the source;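 for effect on FtsZ pattern reorganization dynamics: FtsZ filament patterns imaged by time-lapse TIRF microscopy, one frame per 2 s, with ATP and GTP, Pearson correlation of first frame versus later frames, monoexponential fit, slower decay means persistent structures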
Procedure: as §1
Time-lapse videos were first intensity-corrected and contrast-enhanced to avoid bleaching effects and simplify subsequent analysis. To remove contributions of X–Y drift, the videos were processed with the Linear Stack Alignment with SIFT plugin. Proper alignment was checked with the 3TP align plugin (J. A. Parker; Beth Israel Deaconess Medical Center, Boston). Subsequently, regions of interest (ROIs) in the center of the stacks were chosen for colocalization analysis. The Pearson’s correlation coefficient (PCC) was quantified with the Image CorrelationJ 1o plugin. To extract information about the relative ratio of FtsZ/FtsA molecules (slope of linear regression), we also used the Image CorrelationJ 1o plugin. As an output, the plugin provides a scatterplot of FtsZ vs FtsA intensities, to which we fitted a linear slope y=k⋅x+d , where k is the slope and d the offset. The slope was used as an estimate for the ratio of FtsA molecules below FtsZ filaments.

[6] = FtsA R286W, even at concentrations above 0.4 µM

T2 sequence (P0A9A6 whole entry): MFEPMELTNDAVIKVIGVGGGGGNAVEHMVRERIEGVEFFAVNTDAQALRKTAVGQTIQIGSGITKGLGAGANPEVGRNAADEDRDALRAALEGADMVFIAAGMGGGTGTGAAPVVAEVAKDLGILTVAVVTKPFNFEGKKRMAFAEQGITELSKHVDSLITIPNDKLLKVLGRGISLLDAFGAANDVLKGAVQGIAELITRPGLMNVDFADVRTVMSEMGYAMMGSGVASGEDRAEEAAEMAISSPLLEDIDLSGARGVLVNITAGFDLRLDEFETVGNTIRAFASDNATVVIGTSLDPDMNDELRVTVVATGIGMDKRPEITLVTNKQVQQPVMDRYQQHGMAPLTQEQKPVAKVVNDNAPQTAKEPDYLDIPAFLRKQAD
T2 sequence (P0ABH0 whole entry R286W): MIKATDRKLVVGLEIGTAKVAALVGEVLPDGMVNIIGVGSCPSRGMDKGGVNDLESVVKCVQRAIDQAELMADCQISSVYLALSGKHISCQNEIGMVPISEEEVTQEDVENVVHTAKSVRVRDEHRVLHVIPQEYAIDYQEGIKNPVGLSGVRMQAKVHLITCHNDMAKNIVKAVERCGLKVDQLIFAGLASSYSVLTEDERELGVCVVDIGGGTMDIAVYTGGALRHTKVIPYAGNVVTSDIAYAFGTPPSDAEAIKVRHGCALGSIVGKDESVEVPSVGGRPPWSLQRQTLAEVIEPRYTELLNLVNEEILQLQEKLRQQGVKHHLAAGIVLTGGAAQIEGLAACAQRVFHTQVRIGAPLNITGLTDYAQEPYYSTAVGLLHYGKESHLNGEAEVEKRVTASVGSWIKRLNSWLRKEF
T1 sequence (P0A9A6 whole entry): as the sequence (P0A9A6 whole entry) above
T1 sequence (P0ABH0 whole entry): as the sequence (P0ABH0 whole entry R286W) above, with W286R counted along it

In the case of CSCC[C@H](NC(=O)[C@@H](N)CS)C(=O)N[C@@H](C)C(=O)N[C@@H](CCC(N)=O)C(=O)N[C@@H](CCCNC(=N)N)C(=O)N[C@@H](CC(=O)O)C(=O)N[C@@H](Cc1ccc(O)cc1)C(=O)N[C@H](C(=O)N[C@@H](CCCNC(=N)N)C(=O)N[C@@H](CCCNC(=N)N)C(=O)N[C@@H](CO)C(=O)N[C@@H](CCC(N)=O)C(=O)N1CCC[C@H]1C(=O)N[C@@H](C)C(=O)N1CCC[C@H]1C(=O)N[C@@H](CO)C(=O)N[C@@H](CCCNC(=N)N)C(=O)N[C@@H](CCCNC(=N)N)C(=O)N[C@@H](CCCCN)C(=O)N[C@@H](CCCCN)C(=O)N[C@@H](CO)C(=O)N[C@H](C(=O)N[C@@H](CO)C(=O)N[C@@H](CCCNC(=N)N)C(=O)N[C@@H](CCCCN)C(=O)N[C@@H](CCCCN)C(=O)N[C@@H](CCC(N)=O)C(=O)N[C@@H](CCCNC(=N)N)C(=O)N[C@@H](CC(N)=O)C(=O)N[C@@H](CC(C)C)C(=O)N1CCC[C@H]1C(=O)N[C@@H](C)C(=O)N[C@H](C(=O)N[C@@H](Cc1c[nH]cn1)C(=O)N[C@@H](Cc1c[nH]cn1)C(=O)N[C@@H](Cc1c[nH]cn1)C(=O)N[C@@H](Cc1c[nH]cn1)C(=O)N[C@@H](Cc1c[nH]cn1)C(=O)N[C@@H](Cc1c[nH]cn1)C(=O)O)C(C)C)[C@@H](C)O)C(C)C [FtsNcyto], the “frequency of transient confinement” value [1] is reported as 57.99 ± 7.29%, the “FtsNcyto enrichment saturated within” value [2] is reported as at most 1 min and the “PCCdiff FtsNcyto/FtsZ” value ([3]; 0.4 µM FtsA R286W, […] Tris-NTA, 1.25 µM FtsZ, p-value 3.79 × 10^−3) is reported as 0.47 ± 0.05. For the same molecule, the “PCCdiff FtsNcyto/FtsZ” value ([3]; 0.4 µM FtsA WT, […] Tris-NTA, 1.25 µM FtsZ, p-value 3.79 × 10^−3) was 0.17 ± 0.04, the “PCCdiff FtsNcyto/FtsZ” value [3, 6] was over 0.6 and the “effect on FtsZ pattern reorganization dynamics” value [4] was “significantly slows down”. The “PCC FtsNcyto/FtsZ” value ([5]; 0.4 µM FtsA R286W, […] Tris-NTA, 1.25 µM FtsZ, p-value 4.92 × 10^−4) was 0.70 ± 0.02, the “PCC FtsNcyto/FtsZ” value ([5]; 0.4 µM FtsA WT, […] Tris-NTA, 1.25 µM FtsZ, p-value 4.92 × 10^−4) was 0.30 ± 0.05 and the “PCC FtsNcyto/FtsZ” value [5, 6] was over 0.6.
